For orientation: IC50 means the concentration at which inhibition is half-maximal.

This experiment concerns the target T1, Human HDAC6 (Homo sapiens, UniProt Q9UBN7).
T1 construct: Full length with N-terminal GST tag, MW=159 kDa; GST (N); purchased BioMol SE-508; host or cells: Sf9 cells, baculovirus
T1 sequence (Q9UBN7 1-1215): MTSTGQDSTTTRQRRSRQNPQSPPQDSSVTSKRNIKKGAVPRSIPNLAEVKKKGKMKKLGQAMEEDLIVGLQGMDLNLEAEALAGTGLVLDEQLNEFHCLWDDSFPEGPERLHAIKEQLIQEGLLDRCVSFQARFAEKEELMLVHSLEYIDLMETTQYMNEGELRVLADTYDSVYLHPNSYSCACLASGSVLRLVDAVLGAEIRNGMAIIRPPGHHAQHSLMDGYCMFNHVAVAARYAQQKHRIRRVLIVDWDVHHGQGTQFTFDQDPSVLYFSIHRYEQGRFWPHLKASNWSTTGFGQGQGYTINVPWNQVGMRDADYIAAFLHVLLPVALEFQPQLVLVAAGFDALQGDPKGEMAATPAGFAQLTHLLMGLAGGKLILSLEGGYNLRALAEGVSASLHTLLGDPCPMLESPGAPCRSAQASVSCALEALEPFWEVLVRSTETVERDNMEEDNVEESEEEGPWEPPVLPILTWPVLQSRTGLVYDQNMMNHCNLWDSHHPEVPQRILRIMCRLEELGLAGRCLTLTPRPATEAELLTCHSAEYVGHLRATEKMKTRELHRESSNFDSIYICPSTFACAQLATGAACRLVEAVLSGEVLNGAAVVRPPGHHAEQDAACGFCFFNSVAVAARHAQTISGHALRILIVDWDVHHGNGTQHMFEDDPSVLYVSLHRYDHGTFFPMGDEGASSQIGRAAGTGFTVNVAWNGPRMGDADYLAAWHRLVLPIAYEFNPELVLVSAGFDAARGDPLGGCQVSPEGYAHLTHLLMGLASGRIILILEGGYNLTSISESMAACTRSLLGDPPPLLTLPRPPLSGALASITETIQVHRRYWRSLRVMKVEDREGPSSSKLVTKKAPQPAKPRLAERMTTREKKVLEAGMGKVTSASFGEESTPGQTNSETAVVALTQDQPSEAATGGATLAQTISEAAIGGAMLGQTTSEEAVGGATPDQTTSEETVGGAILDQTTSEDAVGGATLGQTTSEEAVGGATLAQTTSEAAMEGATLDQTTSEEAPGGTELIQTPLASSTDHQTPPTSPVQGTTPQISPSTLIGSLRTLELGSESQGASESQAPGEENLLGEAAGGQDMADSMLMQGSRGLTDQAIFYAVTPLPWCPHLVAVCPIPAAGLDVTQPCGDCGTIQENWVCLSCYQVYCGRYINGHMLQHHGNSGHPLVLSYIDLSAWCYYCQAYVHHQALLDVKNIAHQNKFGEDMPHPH
The experiment in a line: In vitro HDAC6 inhibition, fluorogenic peptide assay. Format: biochemical. To be noted: read-out: IC50 (nM) of enzyme activity HDAC6. The procedure:
All HDAC assays were performed using acetylated AMC-labeled peptide substrate: • Substrate for isoforms HDAC1, 2, 3, 4, 5, 6, 7, 9, 10, 11 and HeLa nuclear extract assays: Acetylated fluorogenic peptide from p53 residues 379-382 (RHKKAc) (BioMol. Cat. # KI-104). • Substrate for HDAC8 assays: Acetylated fluorogenic peptide from p53 residues 379-382 (RHKAcKAc) (BioMol. Cat. # KI-178).
Enzymes: • HDAC1 assay: 75 nM Human HDAC1 (GenBank Accession No. NM_004964): Full length with C-terminal GST tag, MW=79.9 kDa, expressed by baculovirus expression system in Sf9 cells (BioMol. Cat. # SE-456). • HDAC2 assay: 5 nM Human HDAC2 (GenBank Accession No. Q92769): Full length with C-terminal His tag, MW=60 kDa, expressed by baculovirus expression system in Sf9 cells (BioMol. Cat. # SE-500). • HDAC3 assay: 2.3 nM Human HDAC3/NcoR2 (GenBank Accession No. NM_003883 for HDAC3, GenBank Accession No.NM_006312 for NcoR2): Complex of human HDAC3, full length with C-terminal His tag, MW=49.7 kDa, and human NCOR2, N-terminal GST tag, MW=39 kDa, co-expressed in baculovirus expression system (BioMol. Cat. # SE-507). • HDAC4 assay: 266 nM Human HDAC4 (GenBank Accession No. NM_006037): Amino acids 627-1085 with N-terminal GST tag, MW=75.2 kDa, expressed in baculovirus expression system (BioMol, Hamburg, Germany). • HDAC5 assay: 588 nM Human HDAC5 (GenBank Accession No. NM_001015053): Full length with Nterminal GST tag, MW=150 kDa, expressed by baculovirus expression system in Sf9 cells (BioMol, Hamburg, Germany). • HDAC6 assay: 13 nM Human HDAC6 (GenBank Accession No. BC069243): Full length with N-terminal GST tag, MW=159 kDa, expressed by baculovirus expression system in Sf9 cells (BioMol. Cat. # SE-508). • HDAC7 assay: 962 nM Human HDAC7 (GenBank Accession No. AY302468): Amino acids 518-end with N-terminal GST tag, MW=78 kDa, expressed in baculovirus expression system (BioMol, Hamburg, Germany). • HDAC8 assay: 119 nM Human HDAC8 (GenBank Accession No. NM018486): Full length, MW=42 kDa, expressed in an E. coli expression system (BioMol. Cat. # SE-145). • HDAC9 assay: 986 nM Human HDAC9 (GenBank Accession No. NM178423): Amino acids 604-1066 with C-terminal His tag, MW=50.7 kDa, expressed in baculovirus expression system (BioMol, Hamburg, Germany). • HDAC10 assay: 781 nM Human HDAC10 (GenBank Accession No. NM_032019): Amino acids 1-631 with Nterminal GST tag, MW=96 kDa, expressed by baculovirus expression system in Sf9 cells (BioMol. Cat. # SE-559). • HDAC11 assay: 781 nM Human HDAC11 (GenBank Accession No. NM_BC009676) with N-terminal GST tag, MW=66 kDa, expressed in baculovirus expression system (BioMol. Cat. # SE-560). • HeLaNuclear Extract assay: 25 ng/μl Nuclear Extract from HeLa Cells: Prepared by high salt extraction of HeLa nuclei (human cervical cancer cell line), this extract is a rich source of HDAC activity (BioMol. Cat. # KI-140).
The reactions were carried out in a 96-well microplate for fluorometry in a 50 μl reaction volume. After the deacetylation reaction, Fluor-de-Lys-Developer (BioMol Cat. # KI-105) was added to each well to digest the deacetylated substrate, thus producing the fluorescent signal. The reaction was allowed to develop for 45 minutes at 30° C. with 5% CO2; then the fluorescent signal was measured with an excitation wavelength at 360 nm and an emission wavelength at 460 nm in a microplate-reading fluorometer (GeminiXS; Molecular Devices, Sunnyvale, Calif.). […] All experiments were performed in triplicate. IC50 was calculated by fitting the experimental data to a dose-response curve. DMSO was used as negative control; Trichostatin A (Biomol Cat. # GR-309) was used as positive control inhibitor.
Take `O=C(CCCCCNC(=O)c1[nH]c(-c2ccccc2)cc1-c1ccc(O)cc1)NO` [Example 1, N-(6-(hydroxyamino)-6-oxohexyl)-3-(4-hydroxyphenyl)-5-phenyl-1H-pyrrole-2-carboxamide]: the IC50 was determined as 14 nM.

On to `O=C(CCCCCNC(=O)c1[nH]c(-c2ccsc2)cc1-c1ccc(O)cc1)NO` [Example 3, N-(5-(hydroxycarbamoyl)pentyl)-3-(4-hydroxyphenyl)-5-(3-thienyl)-1H-pyrrole-2-carboxamide], for which the half-maximal inhibitory concentration (IC50) came out at 12 nM.

Consider `O=C(CCCCCNC(=O)c1[nH]c(-c2ccc(O)cc2)cc1-c1ccoc1)NO` [Example 5, 3-(3-furyl)-N-(5-(hydroxycarbamoyl)pentyl)-5-(4-hydroxy-phenyl)-1H-pyrrole-2-carboxamide], for which the IC50 was found to be 0.6 nM.

Consider `O=C(CCCCCNC(=O)c1[nH]c(-c2ccc(O)cc2)cc1-c1ccccc1)NO` [Example 2, N-(6-(hydroxyamino)-6-oxohexyl)-5-(4-hydroxyphenyl)-3-phenyl-1H-pyrrole-2-carboxamide], for which the IC50 is 7.6 nM.

For the compound `O=C(CCCCCNC(=O)c1[nH]c(-c2ccc(O)cc2)cc1-c1ccsc1)NO` [Example 6, N-(5-(hydroxycarbamoyl)pentyl)-5-(4-hydroxyphenyl)-3-(3-thienyl)-1H-pyrrole-2-carboxamide], the half-maximal inhibitory concentration (IC50) was 1.6 nM.

On to `O=C(CCCCCNC(=O)c1[nH]c(-c2ccoc2)cc1-c1ccc(O)cc1)NO` [Example 4, 5-(3-furyl)-N-(5-(Hydroxycarbamoyl)pentyl)-3-(4-hydroxy-phenyl)-1H-pyrrole-2-carboxamide], for which the half-maximal inhibitory concentration (IC50) was 9.3 nM.

Turning to `COc1ccc(-c2cc(-c3ccccc3)c(C(=O)NCCCCCC(=O)NO)[nH]2)cc1` [Compound B, N-[6-(hydroxyamino)-6-oxohexyl]-5-(4-methoxyphenyl)-3-phenyl-1H-pyrrole-2-carboxamide, reference compound], the IC50 was 32 nM.

`COc1ccc(-c2cc(-c3ccccc3)[nH]c2C(=O)NCCCCCC(=O)NO)cc1` [Compound A, N-[6-(hydroxyamino)-6-oxohexyl]-3-(4-methoxyphenyl)-5-phenyl-1H-pyrrole-2-carboxamide, reference compound]: the concentration for half-maximal inhibition (IC50) stood at 20 nM.

For the origin of these results see patent publication US20150038545A1, “HYDROXYPHENYL PYRROLE COMPOUNDS CONTAINING AN HYDROXAMIC ACID AS HDAC INHIBITORS AND MEDICINAL APPLICATIONS THEREOF” (UNIVERSIDAD DEL PAÍS VASCO, priority 2011, published 2015).
